The experiment has as its system BDF1 mice, P388 leukemia ip, median survival T/C. The experiment is described as follows: NCI In Vivo Anticancer Drug Screen. Data for tumor model P388 Leukemia (intraperitoneal) in B6D2F1 (BDF1) mice. The following applies: endpoint: median survival time, higher = longer survival. A digest of the protocol:
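Survival ratio, drug arm over vehicle arm, in mice with a transplanted tumour.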

[1] abbreviates: dose: 50.0 mg/kg/injection, schedule: Q01DX009 (ip), vehicle: saline with Tween-80.
[2] abbreviates: dose: 100.0 mg/kg/injection, schedule: Q01DX009 (ip), vehicle: saline with Tween-80.
Where [3] appears, read: dose: 100.0 mg/kg/injection, schedule: Q04DX003 (ip), vehicle: saline with Tween-80.
Where [4] appears, read: dose: 200.0 mg/kg/injection, schedule: Q04DX003 (ip), vehicle: saline with Tween-80.
Where [5] appears, read: dose: 400.0 mg/kg/injection, schedule: Q04DX003 (ip), vehicle: saline with Tween-80.
Where [6] appears, read: dose: 200.0 mg/kg/injection, schedule: Q01DX009 (ip), vehicle: saline with Tween-80.
Setting [7] is: dose: 25.0 mg/kg/injection, schedule: Q01DX009 (ip), vehicle: saline.
Setting [8] is: dose: 50.0 mg/kg/injection, schedule: Q01DX009 (ip), vehicle: saline.
[9] abbreviates: dose: 50.0 mg/kg/injection, schedule: Q04DX003 (ip), vehicle: saline.
The mark [10] stands for this setting: dose: 100.0 mg/kg/injection, schedule: Q01DX009 (ip), vehicle: saline.
Where [11] appears, read: dose: 100.0 mg/kg/injection, schedule: Q04DX003 (ip), vehicle: saline.
Setting [12] is: dose: 200.0 mg/kg/injection, schedule: Q01DX009 (ip), vehicle: saline.
Setting [13] is: dose: 200.0 mg/kg/injection, schedule: Q04DX003 (ip), vehicle: saline.
Where [14] appears, read: dose: 6.25 mg/kg/injection, schedule: Q01DX009 (ip), vehicle: Klucel (hydroxypropylcellulose) (HPC).
Where [15] appears, read: dose: 12.5 mg/kg/injection, schedule: Q01DX009 (ip), vehicle: Klucel (hydroxypropylcellulose) (HPC).
Where [16] appears, read: dose: 25.0 mg/kg/injection, schedule: Q01DX009 (ip), vehicle: Klucel (hydroxypropylcellulose) (HPC).

Each structure is given as a SMILES string. Values joined by “and” are separate entries in the source; they are usually repeats but may differ in a detail not shown here. Equal values may be shown once. Inconclusive results and toxic doses are left out.

Take `O=NN(CCCl)C(=O)Nc1cc(NC(=O)N(CCCl)N=O)cc(C(=O)O)c1`: the T/C by setting is: (dose: 0.03 mg/kg/injection, schedule: Q04DX003 (ip), vehicle: saline with Tween-80) 116 % of control; (dose: 0.06 mg/kg/injection, schedule: Q04DX003 (ip), vehicle: saline with Tween-80) 120 % of control and 122 % of control; (dose: 0.5 mg/kg/injection, schedule: Q04DX003 (ip), vehicle: saline with Tween-80) 150 % of control; (dose: 0.6 mg/kg/injection, schedule: Q04DX003 (ip), vehicle: saline with Tween-80) 163 % of control; (dose: 1.0 mg/kg/injection, schedule: Q04DX003 (ip), vehicle: saline with Tween-80) 170 % of control; (dose: 1.8 mg/kg/injection, schedule: Q04DX003 (ip), vehicle: saline with Tween-80) 195 % of control. Further, the T/C was 200 % of control (dose: 2.0 mg/kg/injection, schedule: Q04DX003 (ip), vehicle: saline with Tween-80); 215 % of control (dose: 2.3 mg/kg/injection, schedule: Q04DX003 (ip), vehicle: saline with Tween-80); 195 % of control (dose: 2.5 mg/kg/injection, schedule: Q04DX003 (ip), vehicle: saline with Tween-80); 265 % of control (dose: 3.5 mg/kg/injection, schedule: Q04DX003 (ip), vehicle: saline with Tween-80); 186 % of control (dose: 3.7 mg/kg/injection, schedule: Q04DX003 (ip), vehicle: saline with Tween-80); 235 % of control (dose: 5.5 mg/kg/injection, schedule: Q04DX003 (ip), vehicle: saline with Tween-80). Besides, the T/C is, setting by setting: (dose: 6.0 mg/kg/injection, schedule: Q04DX003 (ip), vehicle: saline with Tween-80) 222 % of control; (dose: 8.5 mg/kg/injection, schedule: Q04DX003 (ip), vehicle: saline with Tween-80) 275 % of control; (dose: 13.0 mg/kg/injection, schedule: Q04DX003 (ip), vehicle: saline with Tween-80) 250 % of control and 300 % of control; (dose: 18.0 mg/kg/injection, schedule: Q04DX003 (ip), vehicle: saline with Tween-80) 272 % of control; (dose: 20.0 mg/kg/injection, schedule: Q04DX003 (ip), vehicle: saline with Tween-80) 272 % of control and 300 % of control and 218 % of control; (dose: 30.0 mg/kg/injection, schedule: Q04DX003 (ip), vehicle: saline with Tween-80) 235 % of control and 272 % of control. For the same molecule, for the setting “dose: 45.0 mg/kg/injection, schedule: Q04DX003 (ip), vehicle: saline with Tween-80”, the T/C was 95 % of control.

In the case of `O=C1/C(=C/c2ccc(Cl)cc2Cl)CCC/C1=C\c1ccc(Cl)cc1Cl`, the T/C (dose: 25.0 mg/kg/injection, schedule: Q01DX009 (ip), vehicle: saline with Tween-80) was 88 % of control; the T/C under setting [1] was 100 % of control; the T/C under setting [2] was 88 % of control.

With `COc1ccc(CCNC(=O)Cc2ccc(OC)c(OC)c2)cc1OC`, the T/C is, setting by setting: under setting [3], 100 % of control; under setting [4], 95 % of control; under setting [5], 100 % of control.

On to `CCOC(=O)COc1ccc(/C=C(\C)[N+](=O)[O-])c2ccccc12`, for which the T/C reads like this: under setting [1], 112 % of control and 123 % of control; under setting [2], 112 % of control; under setting [6], 122 % of control; (dose: 400.0 mg/kg/injection, schedule: Q01DX009 (ip), vehicle: saline with Tween-80) 106 % of control.

Take `Cc1ccc([N+](=O)[O-])cc1NC(=O)SCCOC(=O)COc1ccc(Cl)cc1`: the T/C is 95 % of control under setting [3], 100 % of control under setting [4] and 109 % of control under setting [5].

`CCCN(CCC)C(=S)[S-].CCCN(CCC)C(=S)[S-].[Zn]`: the T/C was 100 % of control (dose: 37.5 mg/kg/injection, schedule: Q04DX003 (ip), vehicle: saline sonified); 100 % of control (dose: 75.0 mg/kg/injection, schedule: Q04DX003 (ip), vehicle: saline sonified); 112 % of control (dose: 150.0 mg/kg/injection, schedule: Q04DX003 (ip), vehicle: saline sonified).

For `COc1ccc(Cc2nccc3c(OC)c(OC)ccc23)cc1OC`, the T/C under setting [7] is 116 % of control; the T/C under setting [8] was 106 % of control and 119 % of control; the T/C under setting [9] was 103 % of control; the T/C (dose: 75.0 mg/kg/injection, schedule: Q01DX009 (ip), vehicle: saline) is 119 % of control; the T/C under setting [10] was 119 % of control; the T/C under setting [11] was 103 % of control. Also, the T/C is 87 % of control under setting [12] and 87 % of control under setting [13].

Consider `Cc1cc(Cl)c2ccccc2[n+]1C`, for which the T/C reads like this: (dose: 25.0 mg/kg/injection, schedule: Q04DX003 (ip), vehicle: saline) 96 % of control; under setting [9], 88 % of control; under setting [11], 103 % of control.

For `C#CCOCC1CN(C)C(=O)O1` (configuration not stated), the T/C by setting is: under setting [7], 104 % of control; under setting [8], 100 % of control; under setting [9], 91 % of control; under setting [10], 100 % of control; under setting [12], 100 % of control; under setting [13], 100 % of control.

Consider `C=C1C(=O)OC2/C=C(\CO)C(OC(C)=O)CC(O)/C(C)=C/C(OC(=O)C(C)CC)C12` (configuration not stated), for which the T/C was 110 % of control under setting [14]; 108 % of control under setting [15]; 119 % of control under setting [16]; 117 % of control (dose: 50.0 mg/kg/injection, schedule: Q01DX009 (ip), vehicle: Klucel (hydroxypropylcellulose) (HPC)).

With `CCC(c1ccccc1)C(C(=O)O)C(=O)O` (configuration not stated), the T/C was 110 % of control (dose: 100.0 mg/kg/injection, schedule: Q04DX002 (ip), vehicle: saline with Tween-80); 101 % of control (dose: 200.0 mg/kg/injection, schedule: Q04DX002 (ip), vehicle: saline with Tween-80); 103 % of control (dose: 400.0 mg/kg/injection, schedule: Q04DX002 (ip), vehicle: saline with Tween-80).

On to `COCCCN=C(N)c1ccc(NC(=O)c2ccc(C(=O)Nc3ccc(C(N)=NCCCOC)cc3)cc2)cc1`, for which the T/C is 120 % of control (dose: 0.22 mg/kg/injection, schedule: Q01DX009 (ip), vehicle: saline with Tween-80); 116 % of control (dose: 0.5 mg/kg/injection, schedule: Q01DX009 (ip), vehicle: saline with Tween-80); 150 % of control (dose: 0.66 mg/kg/injection, schedule: Q01DX009 (ip), vehicle: saline with Tween-80); 156 % of control (dose: 1.0 mg/kg/injection, schedule: Q01DX009 (ip), vehicle: saline with Tween-80); 176 % of control (dose: 1.5 mg/kg/injection, schedule: Q01DX009 (ip), vehicle: saline with Tween-80); 118 % of control (dose: 1.78 mg/kg/injection, schedule: Q04DX003 (ip), vehicle: saline with Tween-80). For the same molecule, the T/C by setting is: (dose: 2.25 mg/kg/injection, schedule: Q01DX009 (ip), vehicle: saline with Tween-80) 194 % of control; (dose: 3.75 mg/kg/injection, schedule: Q01DX009 (ip), vehicle: saline with Tween-80) 231 % of control; (dose: 4.0 mg/kg/injection, schedule: Q04DX003 (ip), vehicle: saline with Tween-80) 122 % of control; (dose: 7.5 mg/kg/injection, schedule: Q01DX009 (ip), vehicle: saline with Tween-80) 113 % of control; (dose: 15.0 mg/kg/injection, schedule: Q01DX009 (ip), vehicle: saline with Tween-80) 90 % of control; (dose: 15.0 mg/kg/injection, schedule: Q04DX003 (ip), vehicle: saline with Tween-80) 159 % of control.

As to `COc1ccc(OCC(O)CN2CCN(c3ccc(Cl)cc3)CC2)cc1` (configuration not stated), the T/C was 100 % of control under setting [14], 95 % of control under setting [15] and 86 % of control under setting [16].

With `CCSC1(SCC)C(=O)OC2=C(CCCCC2)C1N(C)C` (configuration not stated), the T/C is, setting by setting: under setting [1], 96 % of control; under setting [2], 95 % of control; under setting [6], 103 % of control.

The values above are taken from PubChem BioAssay AID328 (DTP/NCI, 2004).
